Results from patent US12011506B2, “Combination and uses and treatments thereof” (priority 2017, dated 2024).
Read-outs that look alike come from different tables or passages of the source.

Assays:
[1] = Drug interaction trials: effect of rilpivirine on pharmacokinetics of coadministered drugs; settings: No Effect = 1.00; for AUC(0-last) of coadministered drug, geometric mean ratio with/without EDURANT: footnote c
[2] = Drug interaction trials: effect of coadministered drugs on pharmacokinetics of dolutegravir; assay type: in vivo, human
Description: (§1) These recommendations are based on either drug interaction trials of individual components or predicted interactions due to the expected magnitude of interaction and potential for serious adverse events or loss of efficacy.

[3] = Established and other potentially significant drug interactions with JULUCA (effect on concentration); assay type: in vivo, human; settings: based on drug interaction trials or predicted interactions; for Effect on Concentration of Rilpivirine / Effect on Concentration of Dolutegravir: concomitant drug with JULUCA
Description: as §1

[4] = human, in vivo
[5] = coadministered drug 2 h after dolutegravir 50 mg single dose
[6] = simultaneous administration (fasted), dolutegravir 50 mg single dose
[7] = simultaneous administration (fed), dolutegravir 50 mg single dose

Compound: CC(C)c1c(C(=O)Nc2ccccc2O)c(-c2ccccc2)c(-c2ccc(F)cc2)n1CCC(O)CC(O)CC(=O)O (centres unmarked) [2-hydroxy-atorvastatin]
- AUC of coadministered drug, geometric mean ratio with/without EDURANT [1]: 1.39
- Cmax of coadministered drug, geometric mean ratio with/without EDURANT [1]: 1.58
- Cmin of coadministered drug, geometric mean ratio with/without EDURANT [1]: 1.32

Compound: CC(C)c1c(C(=O)Nc2ccc(O)cc2)c(-c2ccccc2)c(-c2ccc(F)cc2)n1CC[C@@H](O)C[C@@H](O)CC(=O)O [4-hydroxy-atorvastatin]
- AUC of coadministered drug, geometric mean ratio with/without EDURANT [1]: 1.23
- Cmax of coadministered drug, geometric mean ratio with/without EDURANT [1]: 1.28

Compound: CO[C@H]1/C=C/O[C@@]2(C)Oc3c(C)c(O)c4c(O)c(c(/C=N/N5CCN(C)CC5)c(O)c4c3C2=O)NC(=O)/C(C)=C\C=C\[C@H](C)[C@H](O)[C@@H](C)[C@@H](O)[C@@H](C)[C@H](O)[C@@H]1C [25-desacetylrifampin]
- AUC of coadministered drug, geometric mean ratio with/without EDURANT [1]: 0.91
- Cmax of coadministered drug, geometric mean ratio with/without EDURANT [1]: 1.00

Compound: O=C([O-])[O-].[Ca+2] [Calcium carbonate]
- Dolutegravir AUC, geometric mean ratio with/without coadministered drug [2, 5]: 0.94
- Dolutegravir Cmax, geometric mean ratio with/without coadministered drug [2, 5]: 1.00
- Dolutegravir Cτ or C24, geometric mean ratio with/without coadministered drug [2, 5]: 0.90
- Dolutegravir AUC, geometric mean ratio with/without coadministered drug [2, 6]: 0.61
- Dolutegravir Cmax, geometric mean ratio with/without coadministered drug [2, 6]: 0.63
- Dolutegravir Cτ or C24, geometric mean ratio with/without coadministered drug [2, 6]: 0.61
- Dolutegravir AUC, geometric mean ratio with/without coadministered drug [2, 7]: 1.09
- Dolutegravir Cmax, geometric mean ratio with/without coadministered drug [2, 7]: 1.07
- Dolutegravir Cτ or C24, geometric mean ratio with/without coadministered drug [2, 7]: 1.08

Compound: NC(=O)N1c2ccccc2C=Cc2ccccc21 [Carbamazepine]
- Effect on Concentration of Rilpivirine [3]: ↓Rilpivirine

Compound: CN/C(=N/CCSCc1nc[nH]c1C)NC#N [Cimetidine]
- Effect on Concentration of Dolutegravir [3]: ↔Dolutegravir
- Effect on Concentration of Rilpivirine [3]: ↓Rilpivirine

Compound: CC[C@H]1OC(=O)[C@H](C)[C@@H](O[C@H]2C[C@@](C)(OC)[C@@H](O)[C@H](C)O2)[C@H](C)[C@@H](O[C@@H]2O[C@H](C)C[C@H](N(C)C)[C@H]2O)[C@](C)(OC)C[C@@H](C)C(=O)[C@H](C)[C@@H](O)[C@]1(C)O [Clarithromycin]
- Effect on Concentration of Dolutegravir [3]: ↔Dolutegravir
- Effect on Concentration of Rilpivirine [3]: ↑Rilpivirine

Compound: C[C@@H]1C[C@H]2[C@@H]3CCC4=CC(=O)C=C[C@]4(C)[C@@]3(F)[C@@H](O)C[C@]2(C)[C@@]1(O)C(=O)CO [Dexamethasone]
- Effect on Concentration of Rilpivirine [3]: ↓Rilpivirine

Compound: C[C@H]1O[C@@H](O[C@H]2[C@@H](O)C[C@H](O[C@H]3[C@@H](O)C[C@H](O[C@H]4CC[C@@]5(C)[C@H](CC[C@@H]6[C@@H]5C[C@@H](O)[C@]5(C)[C@@H](C7=CC(=O)OC7)CC[C@]65O)C4)O[C@@H]3C)O[C@@H]2C)C[C@H](O)[C@@H]1O [Digoxin]
- Cmax of coadministered drug, geometric mean ratio with/without EDURANT [1]: 1.06
- AUC(0-last) of coadministered drug, geometric mean ratio with/without EDURANT [1]: 0.98

Compound: CN(CCOc1ccc(NS(C)(=O)=O)cc1)CCc1ccc(NS(C)(=O)=O)cc1 [Dofetilide]
- Effect on Concentration of the concomitant drug [3]: ↑Dofetilide

Compound: CC[C@H]1OC(=O)[C@H](C)[C@@H](O[C@H]2C[C@@](C)(OC)[C@@H](O)[C@H](C)O2)[C@H](C)[C@@H](O[C@@H]2O[C@H](C)C[C@H](N(C)C)[C@H]2O)[C@](C)(O)C[C@@H](C)C(=O)[C@H](C)[C@@H](O)[C@]1(C)O [Erythromycin]
- Effect on Concentration of Dolutegravir [3]: ↔Dolutegravir
- Effect on Concentration of Rilpivirine [3]: ↑Rilpivirine

Compound: COc1ccc2nc([S@@+]([O-])Cc3ncc(C)c(OC)c3C)[nH]c2c1 [Esomeprazole]
- Effect on Concentration of Rilpivirine [3]: ↓Rilpivirine

Compound: NC(N)=Nc1nc(CSCCC(N)=NS(N)(=O)=O)cs1 [Famotidine]
- Effect on Concentration of Dolutegravir [3]: ↔Dolutegravir
- Effect on Concentration of Rilpivirine [3]: ↓Rilpivirine

Compound: O=C([O-])/C=C/C(=O)[O-].[Fe+2] [Ferrous fumarate]
- Dolutegravir AUC, geometric mean ratio with/without coadministered drug [2, 5]: 0.95
- Dolutegravir Cmax, geometric mean ratio with/without coadministered drug [2, 5]: 0.99
- Dolutegravir Cτ or C24, geometric mean ratio with/without coadministered drug [2, 5]: 0.92
- Dolutegravir AUC, geometric mean ratio with/without coadministered drug [2, 6]: 0.46
- Dolutegravir Cmax, geometric mean ratio with/without coadministered drug [2, 6]: 0.43
- Dolutegravir Cτ or C24, geometric mean ratio with/without coadministered drug [2, 6]: 0.44
- Dolutegravir AUC, geometric mean ratio with/without coadministered drug [2, 7]: 0.98
- Dolutegravir Cmax, geometric mean ratio with/without coadministered drug [2, 7]: 1.03
- Dolutegravir Cτ or C24, geometric mean ratio with/without coadministered drug [2, 7]: 1.00

Compound: CC(=O)N1CCN(c2ccc(OCC3COC(Cn4ccnc4)(c4ccc(Cl)cc4Cl)O3)cc2)CC1 (centres unmarked) [Ketoconazole]
- AUC of coadministered drug, geometric mean ratio with/without EDURANT [1]: 0.76
- Cmax of coadministered drug, geometric mean ratio with/without EDURANT [1]: 0.85
- Cmin of coadministered drug, geometric mean ratio with/without EDURANT [1]: 0.34

Compound: Cc1c(OCC(F)(F)F)ccnc1C[S+]([O-])c1nc2ccccc2[nH]1 (centres unmarked) [Lansoprazole]
- Effect on Concentration of Rilpivirine [3]: ↓Rilpivirine

Compound: CCC(=O)C(CC(C)N(C)C)(c1ccccc1)c1ccccc1 (centres unmarked) [Methadone]
- Effect on Concentration of the concomitant drug [3]: ↓Methadone
- Effect on Concentration of Dolutegravir [3]: ↔Dolutegravir
- Effect on Concentration of Rilpivirine [3]: ↔Rilpivirine

Compound: CCCc1nn(C)c2c(=O)[nH]c(-c3cc(S(=O)(=O)N4CCNCC4)ccc3OCC)nc12 [N-desmethyl-sildenafil]
- Cmax of coadministered drug, geometric mean ratio with/without EDURANT [1]: 0.90
- AUC(0-last) of coadministered drug, geometric mean ratio with/without EDURANT [1]: 0.92

Compound: CNC(=C[N+](=O)[O-])NCCSCc1csc(CN(C)C)n1 [Nizatidine]
- Effect on Concentration of Dolutegravir [3]: ↔Dolutegravir
- Effect on Concentration of Rilpivirine [3]: ↓Rilpivirine

Compound: C#C[C@]1(O)CC[C@H]2[C@@H]3CCC4=CC(=O)CC[C@@H]4[C@H]3CC[C@@]21C [Norethindrone]
- AUC of coadministered drug, geometric mean ratio with/without EDURANT [4]: 0.89
- Cmax of coadministered drug, geometric mean ratio with/without EDURANT [4]: 0.94
- Cmin of coadministered drug, geometric mean ratio with/without EDURANT [1]: 0.99

Compound: NC(=O)N1c2ccccc2CC(=O)c2ccccc21 [Oxcarbazepine]
- Effect on Concentration of Rilpivirine [3]: ↓Rilpivirine

Compound: COc1ccnc(C[S+]([O-])c2nc3ccc(OC(F)F)cc3[nH]2)c1OC (centres unmarked) [Pantoprazole]
- Effect on Concentration of Rilpivirine [3]: ↓Rilpivirine

Compound: CCC1(c2ccccc2)C(=O)NC(=O)NC1=O [Phenobarbital]
- Effect on Concentration of Rilpivirine [3]: ↓Rilpivirine

Compound: O=C1NC(=O)C(c2ccccc2)(c2ccccc2)N1 [Phenytoin]
- Effect on Concentration of Rilpivirine [3]: ↓Rilpivirine

Compound: COCCCOc1ccnc(C[S+]([O-])c2nc3ccccc3[nH]2)c1C (centres unmarked) [Rabeprazole]
- Effect on Concentration of Rilpivirine [3]: ↓Rilpivirine

Compound: CNC(=C[N+](=O)[O-])NCCSCc1ccc(CN(C)C)o1 [Ranitidine]
- Effect on Concentration of Dolutegravir [3]: ↔Dolutegravir
- Effect on Concentration of Rilpivirine [3]: ↓Rilpivirine

Compound: CO[C@H]1/C=C/O[C@@]2(C)Oc3c(C)c(O)c4c(c3C2=O)C2=NC3(CCN(CC(C)C)CC3)NC2=C(NC(=O)/C(C)=C\C=C\[C@H](C)[C@H](O)[C@@H](C)[C@@H](O)[C@@H](C)[C@H](OC(C)=O)[C@@H]1C)C4=O [Rifabutin]
- Effect on Concentration of the concomitant drug [3]: ↔Rifabutin
- Effect on Concentration of Dolutegravir [3]: ↔Dolutegravir
- Effect on Concentration of Rilpivirine [3]: ↓Rilpivirine

Compound: CO[C@H]1/C=C/O[C@@]2(C)Oc3c(C)c(O)c4c(O)c(c(/C=N/N5CCN(C)CC5)c(O)c4c3C2=O)NC(=O)/C(C)=C\C=C\[C@H](C)[C@H](O)[C@@H](C)[C@@H](O)[C@@H](C)[C@H](OC(C)=O)[C@@H]1C [Rifampin]
- Effect on Concentration of Rilpivirine [3]: ↓Rilpivirine

Compound: CO[C@H]1/C=C/O[C@@]2(C)Oc3c(C)c(O)c4c(O)c(c(/C=N/N5CCN(C6CCCC6)CC5)c(O)c4c3C2=O)NC(=O)/C(C)=C\C=C\[C@H](C)[C@H](O)[C@@H](C)[C@@H](O)[C@@H](C)[C@H](OC(C)=O)[C@@H]1C [Rifapentine]
- Effect on Concentration of Rilpivirine [3]: ↓Rilpivirine

Compound: COc1ccc2c(O[C@@H]3C[C@H]4C(=O)N[C@]5(C(=O)NS(=O)(=O)C6CC6)C[C@H]5/C=C\CCCCN(C)C(=O)[C@@H]4C3)cc(-c3nc(C(C)C)cs3)nc2c1C [Simeprevir]
- AUC of coadministered drug, geometric mean ratio with/without EDURANT [1]: 1.06
- Cmax of coadministered drug, geometric mean ratio with/without EDURANT [1]: 1.10
- Cmin of coadministered drug, geometric mean ratio with/without EDURANT [1]: 0.96

Compound: CC[C@H]1OC(=O)[C@H](C)C(=O)[C@H](C)[C@@H](O[C@@H]2O[C@H](C)C[C@H](N(C)C)[C@H]2O)[C@](C)(OC)C[C@@H](C)C(=O)[C@H](C)[C@H]2N(CCCCn3cnc(-c4cccnc4)c3)C(=O)O[C@]12C [Telithromycin]
- Effect on Concentration of Dolutegravir [3]: ↔Dolutegravir
- Effect on Concentration of Rilpivirine [3]: ↑Rilpivirine

Compound: Sucralfate
- Effect on Concentration of Dolutegravir [3]: ↓Dolutegravir
